ChEMBL document CHEMBL1938317, “Structure-based de novo design and biochemical evaluation of novel BRAF kinase inhibitors” (Bioorg Med Chem Lett, 2012)

Molecular target: Serine/threonine-protein kinase B-raf (Homo sapiens, UniProt P15056)
Sequence (P15056 whole entry): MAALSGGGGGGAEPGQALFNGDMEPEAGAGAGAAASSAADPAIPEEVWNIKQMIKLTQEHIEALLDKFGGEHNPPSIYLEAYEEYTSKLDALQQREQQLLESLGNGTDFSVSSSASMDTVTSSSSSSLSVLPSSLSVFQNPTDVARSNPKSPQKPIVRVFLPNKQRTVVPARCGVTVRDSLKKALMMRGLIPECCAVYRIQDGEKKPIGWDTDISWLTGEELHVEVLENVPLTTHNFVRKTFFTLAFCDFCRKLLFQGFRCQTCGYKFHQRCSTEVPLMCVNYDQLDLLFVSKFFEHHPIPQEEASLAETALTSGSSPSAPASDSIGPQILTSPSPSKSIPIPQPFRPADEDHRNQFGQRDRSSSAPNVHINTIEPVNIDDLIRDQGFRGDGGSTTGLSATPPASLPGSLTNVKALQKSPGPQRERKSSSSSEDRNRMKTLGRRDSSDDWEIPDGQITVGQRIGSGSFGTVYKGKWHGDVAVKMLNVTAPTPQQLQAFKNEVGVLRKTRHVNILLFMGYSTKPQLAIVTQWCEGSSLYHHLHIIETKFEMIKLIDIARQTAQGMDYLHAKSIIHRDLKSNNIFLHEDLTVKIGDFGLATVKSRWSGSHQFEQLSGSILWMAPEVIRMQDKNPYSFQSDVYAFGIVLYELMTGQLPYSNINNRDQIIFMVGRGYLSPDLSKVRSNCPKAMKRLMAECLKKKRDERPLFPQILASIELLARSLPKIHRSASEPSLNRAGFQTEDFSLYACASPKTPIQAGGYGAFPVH
Description: Inhibition of BRAF by high-throughput assay

CN(C)C(=O)Cc1ccc(-c2cccc3c(Nc4cccc(O)c4)nncc23)cc1
Kd: 9.6 µM

c1nc2c(Nc3ccc4c(c3)OCCO4)nc(Nc3ccc4c(c3)OCCO4)nc2[nH]1
Kd: 5.2 µM

CC(=O)Nc1ccc(Nc2ncnc3nc[nH]c23)cc1
Kd: 0.79 µM

COc1cc(Nc2nc(N)nc3nc[nH]c23)cc(OC)c1OC
Kd: 4.1 µM

Oc1ccc(-c2cccc3c(Nc4cccc(O)c4)nncc23)cc1
Kd: 5.1 µM

COc1cc(Nc2nc(N)nc3[nH]cnc23)cc(OC)c1
Kd: 3.1 µM

Nc1nc(Nc2cccc(Cl)c2)c2nc[nH]c2n1
Kd: 3 µM

Nc1nc(Nc2ccc(F)c(Cl)c2)c2nc[nH]c2n1
Kd: 3.2 µM

Cc1ccc(Nc2nncc3c(-c4ccc(O)cc4)cccc23)cc1
Kd: 4.7 µM

Nc1nc(Nc2cccc(C(F)(F)F)c2)c2[nH]cnc2n1
Kd: 1.7 µM

Nc1nc(Nc2cccc(F)c2)c2[nH]cnc2n1
Kd: 4.8 µM

COc1ccc(Nc2nc(N)nc3[nH]cnc23)cc1OC
Kd: 5.1 µM

Nc1nc(Nc2ccc(Cl)c(Cl)c2)c2nc[nH]c2n1
Kd: 3.6 µM

CCC(=O)c1cccc(Nc2nc(N)nc3nc[nH]c23)c1
Kd: 2.8 µM

Nc1nc(Nc2cccc(Br)c2)c2[nH]cnc2n1
Kd: 2.2 µM

NS(=O)(=O)c1ccc(Nc2nncc3c(-c4ccc(O)cc4)cccc23)cc1
Kd: 4.7 µM

Nc1nc(Nc2cccc(O)c2)c2[nH]cnc2n1
Kd: 5.8 µM

NC(=O)Cc1ccc(Nc2nncc3c(-c4ccc(O)cc4)cccc23)cc1
Kd: 8 µM

O=C(O)c1ccc(Nc2ncnc3nc[nH]c23)cc1
Kd: 9.4 µM

COc1ccc(Nc2nncc3c(-c4ccc(O)cc4)cccc23)cc1
Kd: 3.7 µM

NC(=O)COc1ccc(Nc2nncc3c(-c4ccc(O)cc4)cccc23)cc1
Kd: 2.5 µM

Nc1nc(Nc2ccccc2O)c2[nH]cnc2n1
Kd: 2 µM
